{"source": "ChEMBL document CHEMBL6083251", "about": "“\"Pseudosubstrate Envelope\"/Free Energy Perturbation-Guided Design and Mechanistic Investigations of Benzothiazole HIV Capsid Modulators with High Ligand Efficiency” (J Med Chem, 2024)", "note": "Calls of active or inactive are those of the source. No cut-off for these calls is given here."}
{"tested_on": "not listed separately", "assay": "Selectivity ratio of EC50 for wild type HIV-1 IIIB infected in human MT4 cells to EC50 for HIV-2 ROD infected in human MT-4 cells assessed as protection against virus-induced cytopathic effect incubated for 5 days by spectrophotometric based MTT assay", "assay_type": "functional", "settings": "time 5 day"}
{"smiles": "CN(C(=O)[C@H](Cc1cc(F)cc(F)c1)NC(=O)Cc1c[nH]c2cccc(Br)c12)c1ccc2scnc2c1", "Ratio EC50": 0.15}
{"smiles": "COc1ccc2[nH]c(C)c(CC(=O)N[C@@H](Cc3cc(F)cc(F)c3)C(=O)N(C)c3ccc4scnc4c3)c2c1", "Ratio EC50": 0.09}
{"smiles": "CN(C(=O)[C@H](Cc1cc(F)cc(F)c1)NC(=O)Cc1c[nH]c2ccc(F)cc12)c1ccc2scnc2c1", "Ratio EC50": 0.07}
{"smiles": "Cc1[nH]c2ccccc2c1CC(=O)N[C@@H](Cc1cc(F)cc(F)c1)C(=O)N(C)c1ccc2scnc2c1", "Ratio EC50": 0.3}
{"smiles": "CN(C(=O)[C@H](Cc1cc(F)cc(F)c1)NC(=O)Cc1c[nH]c2cc(Cl)ccc12)c1ccc2scnc2c1", "Ratio EC50": 0.29}
{"smiles": "Cc1cc(C(F)(F)F)nn1CC(=O)N[C@@H](Cc1cc(F)cc(F)c1)C(=O)N(C)c1ccc2scnc2c1", "Ratio EC50": 0.24}
{"smiles": "Cc1[nH]c2ccc(Cl)cc2c1CC(=O)N[C@@H](Cc1cc(F)cc(F)c1)C(=O)N(C)c1ccc2scnc2c1", "Ratio EC50": 0.31}
{"smiles": "COc1ccc2c(CC(=O)N[C@@H](Cc3cc(F)cc(F)c3)C(=O)N(C)c3ccc4scnc4c3)c[nH]c2c1", "Ratio EC50": 0.57}
{"smiles": "CN(C(=O)[C@H](Cc1cc(F)cc(F)c1)NC(=O)Cc1c[nH]c2ccccc12)c1ccc2scnc2c1", "Ratio EC50": 0.18}
{"smiles": "COC(=O)c1c(C)ccn1CC(=O)N[C@@H](Cc1cc(F)cc(F)c1)C(=O)N(C)c1ccc2scnc2c1", "Ratio EC50": 0.53}
{"smiles": "CN(C(=O)[C@H](Cc1cc(F)cc(F)c1)NC(=O)Cc1c[nH]c2cccc(F)c12)c1ccc2scnc2c1", "Ratio EC50": 0.11}
{"target": "Human immunodeficiency virus type 1 reverse transcriptase (Human immunodeficiency virus 1) (UniProt Q72547)", "settings": "dose 10.0 nM, time 1.0 hrs"}
{"smiles": "Cc1cc(/C=C/C#N)cc(C)c1Nc1ccnc(Nc2ccc(C#N)cc2)n1", "inhibition": "Active"}
{"tested_on": "MT4", "assay": "Cytotoxicity against human MT4 cells assessed as reduction in cell viability incubated for 5 days by spectrophotometric based MTT assay", "assay_type": "functional", "settings": "MT4, 120 h, time 5 day", "units": {"CC50": "nM"}}
{"smiles": "CN(C(=O)[C@H](Cc1cc(F)cc(F)c1)NC(=O)Cc1c[nH]c2cccc(Br)c12)c1ccc2scnc2c1", "CC50": 22200}
{"smiles": "COc1ccc2[nH]c(C)c(CC(=O)N[C@@H](Cc3cc(F)cc(F)c3)C(=O)N(C)c3ccc4scnc4c3)c2c1", "CC50": 29500}
{"smiles": "CN(C(=O)[C@H](Cc1cc(F)cc(F)c1)NC(=O)Cc1c[nH]c2ccc(F)cc12)c1ccc2scnc2c1", "CC50": 25500}
{"smiles": "CN(C(=O)[C@H](Cc1cc(F)cc(F)c1)NC(=O)C(=O)c1c[nH]c2ccccc12)c1ccc2scnc2c1", "CC50": 23600}
{"smiles": "Cc1[nH]c2ccccc2c1CC(=O)N[C@@H](Cc1cc(F)cc(F)c1)C(=O)N(C)c1ccc2scnc2c1", "CC50": 29100}
{"smiles": "CN(C(=O)[C@H](Cc1cc(F)cc(F)c1)NC(=O)Cc1c[nH]c2cc(Cl)ccc12)c1ccc2scnc2c1", "CC50": 24800}
{"smiles": "Cc1cc(C(F)(F)F)nn1CC(=O)N[C@@H](Cc1cc(F)cc(F)c1)C(=O)N(C)c1ccc2scnc2c1", "CC50": 121000}
{"smiles": "Cc1[nH]c2ccc(Cl)cc2c1CC(=O)N[C@@H](Cc1cc(F)cc(F)c1)C(=O)N(C)c1ccc2scnc2c1", "CC50": 26400}
{"smiles": "COc1ccc2c(CC(=O)N[C@@H](Cc3cc(F)cc(F)c3)C(=O)N(C)c3ccc4scnc4c3)c[nH]c2c1", "CC50": 38200}
{"smiles": "CN(C(=O)[C@H](Cc1cc(F)cc(F)c1)NC(=O)Cc1c[nH]c2ccccc12)c1ccc2scnc2c1", "CC50": 33400}
{"smiles": "COC(=O)c1c(C)ccn1CC(=O)N[C@@H](Cc1cc(F)cc(F)c1)C(=O)N(C)c1ccc2scnc2c1", "CC50": 127000}
{"smiles": "CN(C(=O)[C@H](Cc1cc(F)cc(F)c1)NC(=O)Cc1c[nH]c2cccc(F)c12)c1ccc2scnc2c1", "CC50": 23500}
{"tested_on": "not listed separately", "assay": "Selectivity index, ratio of CC50 for human MT4 cells to EC50 for HIV-2 ROD infected in human MT-4 cells", "assay_type": "toxicity, cell-based", "settings": "read-out: Selectivity Index"}
{"smiles": "CN(C(=O)[C@H](Cc1cc(F)cc(F)c1)NC(=O)Cc1c[nH]c2cccc(Br)c12)c1ccc2scnc2c1", "selectivity ratio": 20.5}
{"smiles": "COc1ccc2[nH]c(C)c(CC(=O)N[C@@H](Cc3cc(F)cc(F)c3)C(=O)N(C)c3ccc4scnc4c3)c2c1", "selectivity ratio": 81}
{"smiles": "CN(C(=O)[C@H](Cc1cc(F)cc(F)c1)NC(=O)Cc1c[nH]c2ccc(F)cc12)c1ccc2scnc2c1", "selectivity ratio": 177}
{"smiles": "CN(C(=O)[C@H](Cc1cc(F)cc(F)c1)NC(=O)C(=O)c1c[nH]c2ccccc12)c1ccc2scnc2c1", "selectivity ratio": "< 0.01"}
{"smiles": "Cc1[nH]c2ccccc2c1CC(=O)N[C@@H](Cc1cc(F)cc(F)c1)C(=O)N(C)c1ccc2scnc2c1", "selectivity ratio": 32.8}
{"smiles": "CN(C(=O)[C@H](Cc1cc(F)cc(F)c1)NC(=O)Cc1c[nH]c2cc(Cl)ccc12)c1ccc2scnc2c1", "selectivity ratio": 197}
{"smiles": "Cc1cc(C(F)(F)F)nn1CC(=O)N[C@@H](Cc1cc(F)cc(F)c1)C(=O)N(C)c1ccc2scnc2c1", "selectivity ratio": 133}
{"smiles": "Cc1[nH]c2ccc(Cl)cc2c1CC(=O)N[C@@H](Cc1cc(F)cc(F)c1)C(=O)N(C)c1ccc2scnc2c1", "selectivity ratio": 41.7}
{"smiles": "COc1ccc2c(CC(=O)N[C@@H](Cc3cc(F)cc(F)c3)C(=O)N(C)c3ccc4scnc4c3)c[nH]c2c1", "selectivity ratio": 170}
{"smiles": "CN(C(=O)[C@H](Cc1cc(F)cc(F)c1)NC(=O)Cc1c[nH]c2ccccc12)c1ccc2scnc2c1", "selectivity ratio": 153}
{"smiles": "COC(=O)c1c(C)ccn1CC(=O)N[C@@H](Cc1cc(F)cc(F)c1)C(=O)N(C)c1ccc2scnc2c1", "selectivity ratio": 66.3}
{"smiles": "CN(C(=O)[C@H](Cc1cc(F)cc(F)c1)NC(=O)Cc1c[nH]c2cccc(F)c12)c1ccc2scnc2c1", "selectivity ratio": 47.3}
{"tested_on": "Human immunodeficiency virus 2", "assay": "Anti-HIV activity against HIV-2 ROD infected in human MT-4 cells assessed as protection against virus-induced cytopathic effect incubated for 5 days by spectrophotometric based MTT assay", "assay_type": "functional, organism-based", "settings": "Human immunodeficiency virus 2, ROD, MT4, 120 h", "units": {"EC50": "nM"}}
{"smiles": "CN(C(=O)[C@H](Cc1cc(F)cc(F)c1)NC(=O)Cc1c[nH]c2cccc(Br)c12)c1ccc2scnc2c1", "EC50": 1080}
{"smiles": "COc1ccc2[nH]c(C)c(CC(=O)N[C@@H](Cc3cc(F)cc(F)c3)C(=O)N(C)c3ccc4scnc4c3)c2c1", "EC50": 365}
{"smiles": "CN(C(=O)[C@H](Cc1cc(F)cc(F)c1)NC(=O)Cc1c[nH]c2ccc(F)cc12)c1ccc2scnc2c1", "EC50": 144}
{"smiles": "CN(C(=O)[C@H](Cc1cc(F)cc(F)c1)NC(=O)C(=O)c1c[nH]c2ccccc12)c1ccc2scnc2c1", "EC50": "> 23600"}
{"smiles": "Cc1[nH]c2ccccc2c1CC(=O)N[C@@H](Cc1cc(F)cc(F)c1)C(=O)N(C)c1ccc2scnc2c1", "EC50": 887}
{"smiles": "CN(C(=O)[C@H](Cc1cc(F)cc(F)c1)NC(=O)Cc1c[nH]c2cc(Cl)ccc12)c1ccc2scnc2c1", "EC50": 126}
{"smiles": "Cc1cc(C(F)(F)F)nn1CC(=O)N[C@@H](Cc1cc(F)cc(F)c1)C(=O)N(C)c1ccc2scnc2c1", "EC50": 912}
{"smiles": "Cc1[nH]c2ccc(Cl)cc2c1CC(=O)N[C@@H](Cc1cc(F)cc(F)c1)C(=O)N(C)c1ccc2scnc2c1", "EC50": 633}
{"smiles": "COc1ccc2c(CC(=O)N[C@@H](Cc3cc(F)cc(F)c3)C(=O)N(C)c3ccc4scnc4c3)c[nH]c2c1", "EC50": 224}
{"smiles": "CN(C(=O)[C@H](Cc1cc(F)cc(F)c1)NC(=O)Cc1c[nH]c2ccccc12)c1ccc2scnc2c1", "EC50": 218}
{"smiles": "COC(=O)c1c(C)ccn1CC(=O)N[C@@H](Cc1cc(F)cc(F)c1)C(=O)N(C)c1ccc2scnc2c1", "EC50": 1920}
{"smiles": "CN(C(=O)[C@H](Cc1cc(F)cc(F)c1)NC(=O)Cc1c[nH]c2cccc(F)c12)c1ccc2scnc2c1", "EC50": 498}
{"tested_on": "Human immunodeficiency virus 1", "assay": "Anti-HIV activity against wild type HIV-1 IIIB infected in human MT4 cells assessed as protection against virus-induced cytopathic effect incubated for 5 days by spectrophotometric based MTT assay", "assay_type": "functional, organism-based", "settings": "Human immunodeficiency virus 1, IIIB, MT4, 120 h", "units": {"EC50": "nM"}}
{"smiles": "CN(C(=O)[C@H](Cc1cc(F)cc(F)c1)NC(=O)Cc1c[nH]c2cccc(Br)c12)c1ccc2scnc2c1", "EC50": 166}
{"smiles": "COc1ccc2[nH]c(C)c(CC(=O)N[C@@H](Cc3cc(F)cc(F)c3)C(=O)N(C)c3ccc4scnc4c3)c2c1", "EC50": 32.8}
{"smiles": "CN(C(=O)[C@H](Cc1cc(F)cc(F)c1)NC(=O)Cc1c[nH]c2ccc(F)cc12)c1ccc2scnc2c1", "EC50": 10.1}
{"smiles": "CN(C(=O)[C@H](Cc1cc(F)cc(F)c1)NC(=O)C(=O)c1c[nH]c2ccccc12)c1ccc2scnc2c1", "EC50": "> 23600"}
{"smiles": "Cc1[nH]c2ccccc2c1CC(=O)N[C@@H](Cc1cc(F)cc(F)c1)C(=O)N(C)c1ccc2scnc2c1", "EC50": 270}
{"smiles": "CN(C(=O)[C@H](Cc1cc(F)cc(F)c1)NC(=O)Cc1c[nH]c2cc(Cl)ccc12)c1ccc2scnc2c1", "EC50": 37.1}
{"smiles": "Cc1cc(C(F)(F)F)nn1CC(=O)N[C@@H](Cc1cc(F)cc(F)c1)C(=O)N(C)c1ccc2scnc2c1", "EC50": 223}
{"smiles": "Cc1[nH]c2ccc(Cl)cc2c1CC(=O)N[C@@H](Cc1cc(F)cc(F)c1)C(=O)N(C)c1ccc2scnc2c1", "EC50": 199}
{"smiles": "COc1ccc2c(CC(=O)N[C@@H](Cc3cc(F)cc(F)c3)C(=O)N(C)c3ccc4scnc4c3)c[nH]c2c1", "EC50": 127}
{"smiles": "CN(C(=O)[C@H](Cc1cc(F)cc(F)c1)NC(=O)Cc1c[nH]c2ccccc12)c1ccc2scnc2c1", "EC50": 39.6}
{"smiles": "COC(=O)c1c(C)ccn1CC(=O)N[C@@H](Cc1cc(F)cc(F)c1)C(=O)N(C)c1ccc2scnc2c1", "EC50": 1030}
{"smiles": "CN(C(=O)[C@H](Cc1cc(F)cc(F)c1)NC(=O)Cc1c[nH]c2cccc(F)c12)c1ccc2scnc2c1", "EC50": 53.6}
{"tested_on": "not listed separately", "assay": "Selectivity index, ratio of CC50 for human MT4 cells to EC50 for wild type HIV-1 IIIB infected in human MT4 cells", "assay_type": "toxicity, cell-based", "settings": "read-out: Selectivity Index"}
{"smiles": "CN(C(=O)[C@H](Cc1cc(F)cc(F)c1)NC(=O)Cc1c[nH]c2cccc(Br)c12)c1ccc2scnc2c1", "selectivity ratio": 133}
{"smiles": "COc1ccc2[nH]c(C)c(CC(=O)N[C@@H](Cc3cc(F)cc(F)c3)C(=O)N(C)c3ccc4scnc4c3)c2c1", "selectivity ratio": 900}
{"smiles": "CN(C(=O)[C@H](Cc1cc(F)cc(F)c1)NC(=O)Cc1c[nH]c2ccc(F)cc12)c1ccc2scnc2c1", "selectivity ratio": 2510}
{"smiles": "CN(C(=O)[C@H](Cc1cc(F)cc(F)c1)NC(=O)C(=O)c1c[nH]c2ccccc12)c1ccc2scnc2c1", "selectivity ratio": "< 0.01"}
{"smiles": "Cc1[nH]c2ccccc2c1CC(=O)N[C@@H](Cc1cc(F)cc(F)c1)C(=O)N(C)c1ccc2scnc2c1", "selectivity ratio": 108}
{"smiles": "CN(C(=O)[C@H](Cc1cc(F)cc(F)c1)NC(=O)Cc1c[nH]c2cc(Cl)ccc12)c1ccc2scnc2c1", "selectivity ratio": 669}
{"smiles": "Cc1cc(C(F)(F)F)nn1CC(=O)N[C@@H](Cc1cc(F)cc(F)c1)C(=O)N(C)c1ccc2scnc2c1", "selectivity ratio": 543}
{"smiles": "Cc1[nH]c2ccc(Cl)cc2c1CC(=O)N[C@@H](Cc1cc(F)cc(F)c1)C(=O)N(C)c1ccc2scnc2c1", "selectivity ratio": 133}
{"smiles": "COc1ccc2c(CC(=O)N[C@@H](Cc3cc(F)cc(F)c3)C(=O)N(C)c3ccc4scnc4c3)c[nH]c2c1", "selectivity ratio": 300}
{"smiles": "CN(C(=O)[C@H](Cc1cc(F)cc(F)c1)NC(=O)Cc1c[nH]c2ccccc12)c1ccc2scnc2c1", "selectivity ratio": 842}
{"smiles": "COC(=O)c1c(C)ccn1CC(=O)N[C@@H](Cc1cc(F)cc(F)c1)C(=O)N(C)c1ccc2scnc2c1", "selectivity ratio": 124}
{"smiles": "CN(C(=O)[C@H](Cc1cc(F)cc(F)c1)NC(=O)Cc1c[nH]c2cccc(F)c12)c1ccc2scnc2c1", "selectivity ratio": 439}
